The compounds below were run against recombinant human NUDT5 (Homo sapiens, UniProt Q9UKK9) (assay: NUDT5 inhibitor activity by malachite green reporter assay). Settings: Table 4; 6 nM NUDT5, 50 μM ADP-Ribose, 15 minutes at room temperature.
Format: biochemical
Method in brief: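 Coupled ADP-ribose hydrolysis in 10 mM Tris-acetate pH 8.0, 40 mM NaCl, 10 mM Mg acetate, 0.005% Tween-20, 1 mM DTT: 6 nM NUDT5, 50 μM ADP-Ribose, 10 U/ml alkaline phosphatase, 15 min at room temperature. Pi read by malachite green at 630 nm; compounds 100 μM–1.7 nM, 3-fold; IC50 by curve fit.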

| SMILES | IC50 [nM] |
| --- | --- |
| Cn1c(=O)c2c(nc(NCC(=O)OC(C)(C)C)n2Cc2nnc(-c3ccc(Cl)c(Cl)c3)o2)n(C)c1=O [Example 84, tert-butyl 2-[(7-{[5-(3,4-dichlorophenyl)-1,3,4-oxadiazol-2-yl]methyl}-1,3-dimethyl-2,6-dioxo-2,3,6,7-tetrahydro-1H-purin-8-yl)amino]acetate] | 93.6 |
| Cn1c(=O)c2c(nc(NCC3CCN(C(=N)N)CC3)n2Cc2nnc(-c3ccc(Cl)c(Cl)c3)o2)n(C)c1=O [Example 85, 4-{[(7-{[5-(3,4-dichlorophenyl)-1,3,4-oxadiazol-2-yl]methyl}-1,3-dimethyl-2,6-dioxo-2,3,6,7-tetrahydro-1H-purin-8-yl)amino]methyl}piperidine-1-carboximidamide] | 19.5 |
| COc1ccc(CNc2nc3c(c(=O)n(C)c(=O)n3C)n2Cc2nnc(-c3ccc(Cl)c(Cl)c3)o2)c(OC)c1 [Example 86, 7-{[5-(3,4-dichlorophenyl)-1,3,4-oxadiazol-2-yl]methyl}-8-{[(2,4-dimethoxyphenyl)methyl]amino}-1,3-dimethyl-2,3,6,7-tetrahydro-1H-purine-2,6-dione] | 184 |
| Cn1c(=O)c2c(nc(N)n2Cc2nnc(-c3ccc(Cl)c(Cl)c3)o2)n(C)c1=O [Example 87, 8-amino-7-{[5-(3,4-dichlorophenyl)-1,3,4-oxadiazol-2-yl]methyl}-1,3-dimethyl-2,3,6,7-tetrahydro-1H-purine-2,6-dione] | 16.5 |
| Cn1c(=O)c2c(nc(Cl)n2Cc2nnc(-c3ccccc3)o2)n(C)c1=O [Example 88, 8-chloro-1,3-dimethyl-7-[(5-phenyl-1,3,4-oxadiazol-2-yl)methyl]-2,3,6,7-tetrahydro-1H-purine-2,6-dione] | 3590 |
| Cn1c(=O)c2c(nc(Cl)n2Cc2nnc(-c3ccc(Cl)cc3)o2)n(C)c1=O [Example 89, 8-chloro-7-{[5-(4-chlorophenyl)-1,3,4-oxadiazol-2-yl]methyl}-1,3-dimethyl-2,3,6,7-tetrahydro-1H-purine-2,6-dione] | 620 |
| Cn1c(=O)c2c(nc(Cl)n2Cc2nnc(-c3ccc(F)cc3)o2)n(C)c1=O [Example 90, 8-chloro-7-{[5-(4-fluorophenyl)-1,3,4-oxadiazol-2-yl]methyl}-1,3-dimethyl-2,3,6,7-tetrahydro-1H-purine-2,6-dione] | 4390 |
| Cn1c(=O)c2c(nc(Cl)n2Cc2nnc(-c3cccc(F)c3)o2)n(C)c1=O [Example 91, 8-chloro-7-{[5-(3-fluorophenyl)-1,3,4-oxadiazol-2-yl]methyl}-1,3-dimethyl-2,3,6,7-tetrahydro-1H-purine-2,6-dione] | 2150 |
| COc1cccc(-c2nnc(Cn3c(Cl)nc4c3c(=O)n(C)c(=O)n4C)o2)c1 [Example 92, 8-chloro-7-{[5-(3-methoxyphenyl)-1,3,4-oxadiazol-2-yl]methyl}-1,3-dimethyl-2,3,6,7-tetrahydro-1H-purine-2,6-dione] | 596 |
| Cn1c(=O)c2c(nc(Cl)n2Cc2nnc(-c3ccc(C#N)cc3)o2)n(C)c1=O [Example 93, 4-{5-[(8-chloro-1,3-dimethyl-2,6-dioxo-2,3,6,7-tetrahydro-1H-purin-7-yl)methyl]-1,3,4-oxadiazol-2-yl}benzonitrile] | 918 |
| Cn1c(=O)c2c(nc(Cl)n2Cc2nnc(-c3cccnc3)o2)n(C)c1=O [Example 94, 8-chloro-1,3-dimethyl-7-{[5-(pyridin-3-yl)-1,3,4-oxadiazol-2-yl]methyl}-2,3,6,7-tetrahydro-1H-purine-2,6-dione] | 6910 |
| Cn1c(=O)c2c(nc(Cl)n2Cc2nnc(-c3ccc(Cl)nc3)o2)n(C)c1=O [Example 95, 8-chloro-7-{[5-(6-chloropyridin-3-yl)-1,3,4-oxadiazol-2-yl]methyl}-1,3-dimethyl-2,3,6,7-tetrahydro-1H-purine-2,6-dione] | 1380 |
| Cn1c(=O)c2c(nc(Cl)n2Cc2nnc(-c3ccc([N+](=O)[O-])cc3)o2)n(C)c1=O [Example 96, 8-chloro-1,3-dimethyl-7-{[5-(4-nitrophenyl)-1,3,4-oxadiazol-2-yl]methyl}-2,3,6,7-tetrahydro-1H-purine-2,6-dione] | 1510 |
| Cc1cc(-c2nnc(Cn3c(Cl)nc4c3c(=O)n(C)c(=O)n4C)o2)ccc1Cl [Example 97, 8-chloro-7-{[5-(4-chloro-3-methylphenyl)-1,3,4-oxadiazol-2-yl]methyl}-1,3-dimethyl-2,3,6,7-tetrahydro-1H-purine-2,6-dione] | 64.8 |
| COc1cc(-c2nnc(Cn3c(Cl)nc4c3c(=O)n(C)c(=O)n4C)o2)ccc1Cl [Example 98, 8-chloro-7-{[5-(4-chloro-3-methoxyphenyl)-1,3,4-oxadiazol-2-yl]methyl}-1,3-dimethyl-2,3,6,7-tetrahydro-1H-purine-2,6-dione] | 378 |
| COc1ccc(-c2nnc(Cn3c(Cl)nc4c3c(=O)n(C)c(=O)n4C)o2)cc1Cl [Example 99, 8-chloro-7-{[5-(3-chloro-4-methoxyphenyl)-1,3,4-oxadiazol-2-yl]methyl}-1,3-dimethyl-2,3,6,7-tetrahydro-1H-purine-2,6-dione] | 73 |
| Cn1c(=O)c2c(nc(N3CCN(C(=O)OC(C)(C)C)CC3)n2Cc2nnc(-c3ccc([N+](=O)[O-])cc3)o2)n(C)c1=O [Example 100, tert-butyl 4-(1,3-dimethyl-7-{[5-(4-nitrophenyl)-1,3,4-oxadiazol-2-yl]methyl}-2,6-dioxo-2,3,6,7-tetrahydro-1H-purin-8-yl)piperazine-1-carboxylate] | 9440 |
| Cn1c(=O)c2c(nc(Cl)n2Cc2nnc(-c3ccc4cc[nH]c4c3)o2)n(C)c1=O [Example 101, 8-chloro-7-{[5-(1H-indol-6-yl)-1,3,4-oxadiazol-2-yl]methyl}-1,3-dimethyl-2,3,6,7-tetrahydro-1H-purine-2,6-dione] | 358 |
| Cn1c(=O)c2c(nc(Cl)n2Cc2nnc(-c3ccc(C(F)(F)F)cc3)o2)n(C)c1=O [Example 102, 8-chloro-1,3-dimethyl-7-({5-[4-(trifluoromethyl)phenyl]-1,3,4-oxadiazol-2-yl}methyl)-2,3,6,7-tetrahydro-1H-purine-2,6-dione] | 484 |

Further lines, results first:

| IC50 [nM] | SMILES |
| --- | --- |
| 61600 | Cn1c(=O)c2c(nc(Cl)n2Cc2nnc(-c3ccc(CS(C)(=O)=O)cc3)o2)n(C)c1=O [Example 103, 8-chloro-7-({5-[4-(methanesulfonylmethyl)phenyl]-1,3,4-oxadiazol-2-yl}methyl)-1,3-dimethyl-2,3,6,7-tetrahydro-1H-purine-2,6-dione] |
| > 100000 | COc1ccc(-c2nnc(Cn3c(Cl)nc4c3c(=O)n(C)c(=O)n4C)o2)cc1OC [Example 104, 8-chloro-7-{[5-(3,4-dimethoxyphenyl)-1,3,4-oxadiazol-2-yl]methyl}-1,3-dimethyl-2,3,6,7-tetrahydro-1H-purine-2,6-dione] |
| 24500 | Cn1c(=O)c2c(nc(N3CCN(C(=O)OC(C)(C)C)CC3)n2Cc2nnc(-c3ccc(N)cc3)o2)n(C)c1=O [Example 105, tert-butyl 4-(7-{[5-(4-aminophenyl)-1,3,4-oxadiazol-2-yl]methyl}-1,3-dimethyl-2,6-dioxo-2,3,6,7-tetrahydro-1H-purin-8-yl)piperazine-1-carboxylate] |
| 2920 | Cc1ccc(-c2nnc(Cn3c(Cl)nc4c3c(=O)n(C)c(=O)n4C)o2)cn1 [Example 106, 8-chloro-1,3-dimethyl-7-{[5-(6-methylpyridin-3-yl)-1,3,4-oxadiazol-2-yl]methyl}-2,3,6,7-tetrahydro-1H-purine-2,6-dione] |
| 212 | Cn1c(=O)c2c(nc(N3CCNCC3)n2Cc2nnc(-c3ccccc3)o2)n(C)c1=O [Example 107, 1,3-dimethyl-7-[(5-phenyl-1,3,4-oxadiazol-2-yl)methyl]-8-(piperazin-1-yl)-2,3,6,7-tetrahydro-1H-purine-2,6-dione] |
| 99 | Cn1c(=O)c2c(nc(N3CCNCC3)n2Cc2nnc(-c3ccc(Cl)cc3)o2)n(C)c1=O [Example 108, 7-{[5-(4-chlorophenyl)-1,3,4-oxadiazol-2-yl]methyl}-1,3-dimethyl-8-(piperazin-1-yl)-2,3,6,7-tetrahydro-1H-purine-2,6-dione] |
| 345 | Cn1c(=O)c2c(nc(N3CCNCC3)n2Cc2nnc(-c3ccc(F)cc3)o2)n(C)c1=O [Example 109, 7-{[5-(4-fluorophenyl)-1,3,4-oxadiazol-2-yl]methyl}-1,3-dimethyl-8-(piperazin-1-yl)-2,3,6,7-tetrahydro-1H-purine-2,6-dione] |
| 129 | Cn1c(=O)c2c(nc(N3CCNCC3)n2Cc2nnc(-c3cccc(F)c3)o2)n(C)c1=O [Example 110, 7-{[5-(3-fluorophenyl)-1,3,4-oxadiazol-2-yl]methyl}-1,3-dimethyl-8-(piperazin-1-yl)-2,3,6,7-tetrahydro-1H-purine-2,6-dione] |
| 119 | COc1cccc(-c2nnc(Cn3c(N4CCNCC4)nc4c3c(=O)n(C)c(=O)n4C)o2)c1 [Example 111, 7-{[5-(3-methoxyphenyl)-1,3,4-oxadiazol-2-yl]methyl}-1,3-dimethyl-8-(piperazin-1-yl)-2,3,6,7-tetrahydro-1H-purine-2,6-dione] |
| 255 | Cn1c(=O)c2c(nc(N3CCNCC3)n2Cc2nnc(-c3ccc(C#N)cc3)o2)n(C)c1=O [Example 112] |
| 1690 | Cn1c(=O)c2c(nc(N3CCNCC3)n2Cc2nnc(-c3cccnc3)o2)n(C)c1=O [Example 113, 1,3-dimethyl-8-(piperazin-1-yl)-7-{[5-(pyridin-3-yl)-1,3,4-oxadiazol-2-yl]methyl}-2,3,6,7-tetrahydro-1H-purine-2,6-dione] |
| 29000 | Cn1c(=O)c2c(nc(N3CCNCC3)n2Cc2nnc(-c3ccc(N4CCNCC4)nc3)o2)n(C)c1=O [Example 114, 1,3-dimethyl-8-(piperazin-1-yl)-7-({5-[6-(piperazin-1-yl)pyridin-3-yl]-1,3,4-oxadiazol-2-yl}methyl)-2,3,6,7-tetrahydro-1H-purine-2,6-dione] |

Reference: patent US20210128566A1, “NOVEL FUNCTIONALIZED PURINE-2,6-DIONES AND THEIR USE IN MEDICINE” (THOMAS HELLEDAYS STIFTELSE FÖR MEDICINSK FORSKNING, priority 2017, published 2021)
